Results: patent EP2906547B2, “COSMETIC COMPOSITIONS CONTAINING AT LEAST ONE HYDROTROPE AND AT LEAST ONE ACTIVE COMPOUND” (priority 2012, dated 2014)
In brackets after ≈: the same amount, converted by molar mass. Where two headings read alike, the source gives them in different places. Each block holds one compound with its values, some of them ahead of it.

Columns and labels:
[1] = Solubility of adenosine in water with and without hydrotropes
[2] = Solubility of baicalin in water as a function of pH; assay type: physicochemical; conditions: for solubility: water
[3] = physchem
Experimental: Another aspect of the text discloses a method for preparing the aqueous compositions comprising including in the composition at least one phenolic compound and at least one hydrotrope in an amount sufficient to solubilize the phenolic compound, such as a polyphenol, in water. A hydrotrope solution is prepared by completely dissolving one or more hydrotropic agents into water. At least one phenolic compound is then added in and mixed using a stirring bar or any other mixer. […] Everything is prepared at room temperature to keep the stability of the phenolic compound(s).
Everything is prepared at room temperature to keep the stability of the phenolic compounds.

[4] = Stability of solutions on dilution in water
[5] = 5% nicotinamide and 5% caffeine, room temperature
[6] = 5% nicotinamide, 5% caffeine, water

Solubility in water without hydrotropes ([3]; water): <0.05 % (w/w)
SMILES: COc1ccc([C@@H]2CC(=O)c3c(O)cc(O[C@@H]4O[C@H](CO)[C@@H](O)[C@H](O)[C@H]4O[C@@H]4O[C@@H](C)[C@H](O)[C@@H](O)[C@H]4O)cc3O2)cc1O [Neohesperidin]

Solubility in water with hydrotropes [3, 6]: >0.75 % (w/w) | solubility thermodynamic ([3]; water): < 50 µg/mL
SMILES: Oc1ccc(C=Cc2cc(O)cc(O)c2)cc1 [Resveratrol]

Solubility in water with hydrotropes [3, 5]: >1 % (w/w) | solubility thermodynamic ([3]; water): < 1000 µg/mL
SMILES: O=C1c2c(O)cc(O)cc2O[C@H](c2ccc(O)c(O)c2)[C@H]1O [Taxifolin]

Further lines, the compound ahead of its results:

SMILES: Nc1ncnc2c1ncn2[C@@H]1O[C@H](CO)[C@@H](O)[C@H]1O [Adenosine]
Solubility in water with hydrotropes [1, 5]: >3 %(w/w) | solubility thermodynamic ([1]; water): < 5000 µg/mL

SMILES: O=C(O)[C@H]1O[C@@H](Oc2cc3oc(-c4ccccc4)cc(=O)c3c(O)c2O)[C@H](O)[C@@H](O)[C@@H]1O [Baicalin]
pH at which degradation happens ([2]; in water): > 5 | solubility ([2]; pH 3, water, in water, pH 3, read-out: Solubility): 16 µg/mL (≈ 35.8 µM) | solubility ([2]; pH 3.5, water, in water, pH 3.5, read-out: Solubility): 21 µg/mL (≈ 47 µM) | solubility ([2]; pH 4, water, in water, pH 4, read-out: Solubility): 40 µg/mL (≈ 89.6 µM) | solubility ([2]; pH 4.5, water, in water, pH 4.5, read-out: Solubility): 84 µg/mL (≈ 188 µM) | solubility ([2]; pH 4.5, water, without hydrotrope, natural pH -4.5, read-out: solubility in water): < 100 µg/mL | solubility ([2]; pH 5, water, in water, pH 5, read-out: Solubility): 350 µg/mL (≈ 784 µM) | water solubility ([3]; 2% caffeine in water): 0.11% | Solubility in water with hydrotropes [3, 6]: >1 % (w/w) | amount solubilized in water [3, 6]: approximately 1% | solubility thermodynamic ([3]; water): < 100 µg/mL | stability of dilution in water ([4]; hydrotrope solution diluted in water): still stable | stability of dilution in water ([4]; solution in organic solvent (e.g. PEG-4) diluted in water, crystallization or precipitation occurs): not stable any more

SMILES: O=c1oc2c(O)c(O)cc3c(=O)oc4c(O)c(O)cc1c4c23 [Ellagic acid]
Solubility in water with hydrotropes [3, 5]: >0.01 % (w/w) | solubility thermodynamic ([3]; water): < 10 µg/mL
